# Assay results as given in PubChem BioAssay AID330 (DTP/NCI, 2004).
# Several values for one entry are separate records, joined by “and”; a condition that tells them apart may be missing. Equal entries are not always repeated. Inconclusive results and toxic doses are left out.
# Test system: P388 leukemia ip, CD2F1 mice, survival T/C
# Test: NCI In Vivo Anticancer Drug Screen. Data for tumor model P388 Leukemia (intraperitoneal) in CD2F1 (CDF1) mice
# Conditions: endpoint: median survival time, higher = longer survival
# Method in brief: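 Mice carrying the transplanted tumor received test compound or vehicle. Survival was recorded in each group, and the value is the treated-group measurement divided by that of the vehicle-treated control group.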
# [1] = dose: 60.0 mg/kg/injection, schedule: Q01DX005 (ip), vehicle: saline with Tween-80
# [2] = dose: 120.0 mg/kg/injection, schedule: Q01DX005 (ip), vehicle: saline with Tween-80
# [3] = dose: 240.0 mg/kg/injection, schedule: Q01DX005 (ip), vehicle: saline with Tween-80
# [4] = dose: 50.0 mg/kg/injection, schedule: Q01DX009 (ip), vehicle: saline with Tween-80
# [5] = dose: 100.0 mg/kg/injection, schedule: Q01DX009 (ip), vehicle: saline with Tween-80
# [6] = dose: 200.0 mg/kg/injection, schedule: Q01DX009 (ip), vehicle: saline with Tween-80
# [7] = dose: 25.0 mg/kg/injection, schedule: Q01DX009 (ip), vehicle: saline with Tween-80
# [8] = dose: 50.0 mg/kg/injection, schedule: Q01DX009 (ip), vehicle: saline
# [9] = dose: 100.0 mg/kg/injection, schedule: Q01DX009 (ip), vehicle: saline
# [10] = dose: 200.0 mg/kg/injection, schedule: Q01DX009 (ip), vehicle: saline
# [11] = dose: 25.0 mg/kg/injection, schedule: Q01DX005 (ip), vehicle: Klucel (hydroxypropylcellulose) (HPC)
# [12] = dose: 12.5 mg/kg/injection, schedule: Q01DX009 (ip), vehicle: distilled water + Tween-80
# [13] = dose: 25.0 mg/kg/injection, schedule: Q01DX009 (ip), vehicle: distilled water + Tween-80
# [14] = dose: 50.0 mg/kg/injection, schedule: Q01DX009 (ip), vehicle: distilled water + Tween-80
# [15] = dose: 12.5 mg/kg/injection, schedule: Q01DX009 (ip), vehicle: other
# [16] = dose: 25.0 mg/kg/injection, schedule: Q01DX009 (ip), vehicle: other
# [17] = dose: 50.0 mg/kg/injection, schedule: Q01DX009 (ip), vehicle: other
# [18] = dose: 100.0 mg/kg/injection, schedule: Q01DX009 (ip), vehicle: other
# [19] = dose: 200.0 mg/kg/injection, schedule: Q01DX009 (ip), vehicle: other
# [20] = dose: 50.0 mg/kg/injection, schedule: Q01DX005 (ip), vehicle: saline with Tween-80
# [21] = dose: 100.0 mg/kg/injection, schedule: Q01DX005 (ip), vehicle: saline with Tween-80
# [22] = dose: 200.0 mg/kg/injection, schedule: Q01DX005 (ip), vehicle: saline with Tween-80
compound,measurement,setting,value
Cn1cc(-c2ccc3c(c2)OCO3)c2ccccc21,T/C,[1],100 % of control
same,T/C,[2],100 % of control
same,T/C,[3],101 % of control
OCCn1nc2c(c1-c1ccncc1)CCCc1ccccc1-2,T/C,"dose: 100.0 mg/kg/injection, schedule: Q04DX002 (ip), vehicle: saline with Tween-80",97 % of control
same,T/C,"dose: 200.0 mg/kg/injection, schedule: Q04DX002 (ip), vehicle: saline with Tween-80",94 % of control
same,T/C,"dose: 400.0 mg/kg/injection, schedule: Q04DX002 (ip), vehicle: saline with Tween-80",94 % of control
O=C1c2ccccc2C(=O)N1c1ccc(C(F)(F)F)cc1[N+](=O)[O-],T/C,"dose: 100.0 mg/kg/injection, schedule: Q04DX003 (ip), vehicle: saline",91 % of control
same,T/C,"dose: 200.0 mg/kg/injection, schedule: Q04DX003 (ip), vehicle: saline",100 % of control
same,T/C,"dose: 400.0 mg/kg/injection, schedule: Q04DX003 (ip), vehicle: saline",93 % of control
CC(C)(C)N=C(CCN1CCCCC1)Nc1ccc(Cl)cc1,T/C,[4],113 % of control
same,T/C,[5],112 % of control
same,T/C,[6],111 % of control
FP1(c2ccccc2)(c2ccccc2)Nc2cc(C(c3ccccc3)(c3ccccc3)c3ccccc3)ccc2O1,T/C,"dose: 12.5 mg/kg/injection, schedule: Q01DX009 (ip), vehicle: saline with Tween-80",104 % of control
same,T/C,[7],98 % of control
same,T/C,[4],92 % of control
same,T/C,[6],95 % of control
COC(=O)c1cc(OC)c2cccnc2c1Nc1ccccc1,T/C,[1],102 % of control
same,T/C,[2],102 % of control
same,T/C,[3],100 % of control
Nc1nccc([N+](=O)[O-])n1,T/C,[8],97 % of control
same,T/C,[9],99 % of control
same,T/C,[10],100 % of control
COc1ccc(C(NCCn2cnc3c2c(=O)n(C)c(=O)n3C)c2ccccc2)cc1 (configuration not stated),T/C,"dose: 6.25 mg/kg/injection, schedule: Q01DX005 (ip), vehicle: alkali diluted with saline",100 % of control
same,T/C,"dose: 12.5 mg/kg/injection, schedule: Q01DX005 (ip), vehicle: alkali diluted with saline",100 % of control
same,T/C,"dose: 25.0 mg/kg/injection, schedule: Q01DX005 (ip), vehicle: alkali diluted with saline",96 % of control
Cc1ccoc1,T/C,"dose: 7.5 mg/kg/injection, schedule: Q01DX005 (ip), vehicle: saline with Tween-80",105 % of control
same,T/C,"dose: 15.0 mg/kg/injection, schedule: Q01DX005 (ip), vehicle: saline with Tween-80",100 % of control
same,T/C,"dose: 30.0 mg/kg/injection, schedule: Q01DX005 (ip), vehicle: saline with Tween-80",97 % of control
same,T/C,[1],98 % of control
same,T/C,[2],101 % of control
same,T/C,[3],106 % of control
Cc1nn(C(N)=S)c(C)c1N=Nc1ccc(F)cc1,T/C,[11],96 % of control
same,T/C,"dose: 50.0 mg/kg/injection, schedule: Q01DX005 (ip), vehicle: Klucel (hydroxypropylcellulose) (HPC)",102 % of control
same,T/C,"dose: 100.0 mg/kg/injection, schedule: Q01DX005 (ip), vehicle: Klucel (hydroxypropylcellulose) (HPC)",90 % of control
CNC(=O)OCc1c(COC(=O)NC)c(-c2ccc(Cl)cc2)n(C)c1-c1ccccc1,T/C,[12],154 % of control
same,T/C,[13],157 % of control and 172 % of control
same,T/C,[14],181 % of control
CC[n+]1c(/C=C/c2ccc(N(CCC(=O)O)CCC(=O)O)cc2)sc2ccccc21,T/C,"dose: 12.5 mg/kg/injection, schedule: Q04DX003 (ip), vehicle: saline with Tween-80",99 % of control
same,T/C,"dose: 25.0 mg/kg/injection, schedule: Q04DX003 (ip), vehicle: saline with Tween-80",100 % of control
same,T/C,"dose: 50.0 mg/kg/injection, schedule: Q04DX003 (ip), vehicle: saline with Tween-80",101 % of control
O=C(NC(CCSSCCC(NC(=O)OCc1ccccc1)C(=O)OCc1ccccc1)C(=O)OCc1ccccc1)OCc1ccccc1 (configuration not stated),T/C,[15],91 % of control
same,T/C,[16],98 % of control
same,T/C,[17],94 % of control
same,T/C,[18],98 % of control
same,T/C,[19],100 % of control
NC(=O)CC1=Cc2c(ccc3ccc(O)cc23)C1,T/C,[12],97 % of control
same,T/C,[13],91 % of control
same,T/C,[14],102 % of control
same,T/C,"dose: 100.0 mg/kg/injection, schedule: Q01DX009 (ip), vehicle: distilled water + Tween-80",93 % of control
same,T/C,"dose: 200.0 mg/kg/injection, schedule: Q01DX009 (ip), vehicle: distilled water + Tween-80",90 % of control
COc1cc2c(cc1OC(C)=O)C(=O)C(Br)(Br)CCC2,T/C,"dose: 15.0 mg/kg/injection, schedule: Q01DX009 (ip), vehicle: saline with Tween-80",98 % of control
same,T/C,[7],103 % of control
same,T/C,"dose: 30.0 mg/kg/injection, schedule: Q01DX009 (ip), vehicle: saline with Tween-80",106 % of control
same,T/C,[4],100 % of control and 116 % of control
same,T/C,"dose: 60.0 mg/kg/injection, schedule: Q01DX009 (ip), vehicle: saline with Tween-80",100 % of control
same,T/C,[5],99 % of control
same,T/C,[6],106 % of control
NC(N)=NCCCC1NC(=O)C(Cc2ccc(O)cc2)NC1=O (configuration not stated),T/C,[20],98 % of control and 93 % of control
same,T/C,[21],100 % of control
same,T/C,[22],100 % of control and 101 % of control
COc1ccc(N=Cc2cccs2)cc1,T/C,"dose: 50.0 mg/kg/injection, schedule: Q01DX009 (ip), vehicle: Klucel (hydroxypropylcellulose) (HPC)",94 % of control
same,T/C,"dose: 100.0 mg/kg/injection, schedule: Q01DX009 (ip), vehicle: Klucel (hydroxypropylcellulose) (HPC)",114 % of control
same,T/C,"dose: 200.0 mg/kg/injection, schedule: Q01DX009 (ip), vehicle: Klucel (hydroxypropylcellulose) (HPC)",105 % of control
CO/N=C/c1ccc[n+](C)c1,T/C,[20],105 % of control
same,T/C,[21],105 % of control
Cn1nc(C(N)=O)c(=O)[nH]c1=S,T/C,[20],100 % of control
same,T/C,[21],99 % of control
same,T/C,[22],103 % of control
COc1cc2c3c(c1OC)C(=O)C[C@@H]1CCCN(CC2)[C@H]31,T/C,"dose: 12.5 mg/kg/injection, schedule: Q01DX005 (ip), vehicle: Klucel (hydroxypropylcellulose) (HPC)",99 % of control
same,T/C,[11],98 % of control
NC1=NC(=O)N2CC12 (configuration not stated),T/C,[8],122 % of control
same,T/C,[9],153 % of control and 158 % of control
same,T/C,[10],100 % of control
CCCCCCC1(/C=C/c2ccc(Cl)c(Cl)c2)SCCS1,T/C,"dose: 12.0 mg/kg/injection, schedule: Q01DX009 (ip), vehicle: saline with Tween-80",100 % of control
same,T/C,"dose: 12.5 mg/kg/injection, schedule: Q01DX009 (ip), vehicle: saline",105 % of control
same,T/C,[7],107 % of control
same,T/C,"dose: 25.0 mg/kg/injection, schedule: Q01DX009 (ip), vehicle: saline",102 % of control
same,T/C,[4],104 % of control
same,T/C,[5],100 % of control
same,T/C,[9],102 % of control and 90 % of control
NCCCCC(C(=O)NC(CCC(=O)OCc1ccccc1)C(=O)Oc1ccc([N+](=O)[O-])cc1)N(C(=O)OCc1ccccc1)C(=O)OCc1ccccc1 (configuration not stated),T/C,[20],100 % of control
same,T/C,[21],100 % of control
same,T/C,[22],92 % of control
Clc1cc2c(c3ncccc13)OCN(Cc1ccccc1)C2,T/C,"dose: 100.0 mg/kg/injection, schedule: Q04DX003 (ip), vehicle: Klucel (hydroxypropylcellulose) (HPC)",91 % of control
same,T/C,"dose: 200.0 mg/kg/injection, schedule: Q04DX003 (ip), vehicle: Klucel (hydroxypropylcellulose) (HPC)",92 % of control
same,T/C,"dose: 400.0 mg/kg/injection, schedule: Q04DX003 (ip), vehicle: Klucel (hydroxypropylcellulose) (HPC)",92 % of control
N=c1ccn2c(n1)OC1C(OP(=O)(O)O)C(CO)OC12 (configuration not stated),T/C,"dose: 177.0 mg/kg/injection, schedule: Q04DX003 (ip), vehicle: saline with Tween-80",154 % of control
CCCCN=C(c1ccc(O)cc1)c1ccc(OC)cc1O,T/C,[1],108 % of control
same,T/C,[2],92 % of control
same,T/C,[3],99 % of control
O=C=N[Si](c1ccccc1)(c1ccccc1)c1ccccc1,T/C,"dose: 100.0 mg/kg/injection, schedule: Q01DX001 (ip), vehicle: saline with Tween-80",96 % of control
same,T/C,"dose: 200.0 mg/kg/injection, schedule: Q01DX001 (ip), vehicle: saline with Tween-80",89 % of control
CC1(OC(=O)c2ccc(F)cc2)CC(C)(C)[N+]([O-])=N1 (configuration not stated),T/C,[15],113 % of control
same,T/C,[16],101 % of control
same,T/C,[17],118 % of control
same,T/C,[18],118 % of control
same,T/C,[19],123 % of control
